Key:
[1] = tested on: primary MM cells in patient bone marrow aspirate MNC cultures; experiment: Myeloma drug sensitivity testing (My-DST): ex vivo 48 h culture of patient bone marrow MNCs, flow cytometry of surviving MM cells
Description: Extra bone marrow aspirate was collected from patients at University of Colorado Blood Cancer and Bone Marrow Transplant Program after informed consent. Samples from patients with multiple myeloma or smoldering myeloma were obtained from the hematologic malignancies tissue bank with protocol approval from the Western Institutional Review Board. MNCs were isolated from the samples using SepMate Ficoll-Plaque tubes (StemCell Technologies). Normal donor samples were purchased from AllCells. Selection of CD138^+ cells was performed with magnetic bead columns (Miltenyi), only where specifically noted.
(§1) De-identified primary myeloma samples were thawed and incubated with 100 μg DNase I (Sigma-Aldrich). Samples were washed twice with 10 mL Dulbecco's Phosphate Buffered Saline (DPBS) without calcium and magnesium. Cells were resuspended in RPMI1640 medium containing L-glutamine with 10% FBS and 100 U/mL penicillin and 100 μg/mL streptomycin (Thermo Fisher Scientific) and 2 ng/mL IL-6 (PeproTech) at 37° C. for 2 hours. Cells were then transferred to 96-well plates at 4.5×10^5 cells/mL (90,000 MNCs per well) and drug treated for 48 hours. PIs, IMiDs and Dex were purchased from Thermo Fisher. […] Stock drug solutions were prepared at 10 mM in DMSO and stored at −20° C. until use. Dara was obtained from University of Colorado Health Pharmacy. Clodronate-liposomes were purchased from Encapsula Nanosciences to block macrophage activity.
(§2) After 48-hour treatment primary samples were washed in 1× cold DPBS and re-suspended in BD Brilliant Stain Buffer (BD Biosciences) in a 96-well v-bottom plate. Cells were treated with FcR Blocking Reagent (Miltenyi Biotec) for 5 minutes and then surface stained with the antibodies anti-CD19-BV786, anti-CD45-BV510, monoclonal anti-CD38-BV421 or multi-epitope anti-CD38-FITC (ALPCO), anti-CD138-BV421 and anti-CD319-APC or anti-CD46 conjugated to Alexa647 with the Antibody Labeling Kit (In Vitrogen). Intracellular staining with anti-kappa-BV605 and anti-lambda-PE light chains was performed after paraformaldehyde fixation and permeabilization. All antibodies were purchased from BD Biosciences, except as noted. After staining, samples were washed with 100 μl DPBS containing 2% FBS (FACS buffer) and re-suspended in 250 μL. Viability staining was done using the LIVE/DEAD Fixable Near-IR Kit (Invitrogen, Carlsbad Calif.). Flow cytometry data was collected using a FACSCelesta (BD) equipped with a high throughput sampler (FITS). For each well a fixed volume of 175 μL was collected by the HTS. Data analysis was completed using FlowJo software.
To profile response to the agents commonly used in clinic, patient samples were initially screened with a panel including bortezomib (Bor), carfilzomib (Car), lenalidomide (Len), pomalidomide (Pom), Dex and Cy (tested as its active metabolite “4-HC”). MNCs are cultured for 48 hours, followed by flow cytometry to measure the surviving MM cell population. To accurately measure the MM cells on a sample-by-sample basis, cells were labeled for surface expression of CD138, CD38, CD45, CD19, CD319 and CD46. […] In parallel, intracellular flow cytometry for kappa and lambda was used to verify the clonality and individualize the MM population gating (FIG. 1F).
For rapid screening, single concentrations of each drug were sought that produce an expected decrease in MM cell viability by which to judge sensitivity versus resistance. This was started by establishing the dose response to each drug under the above conditions. Each condition was performed in triplicate and normalized compared to untreated control.

[2] = tested on: non-plasma cells (NPCs) negative for CD138 and CD38; conditions: 48 h; for viability of nonplasma cells (NPCs) in the cultures: patient samples (FIG. 2A, 7E)
Experimental: as §1
as §2, with “software. […]” for “software.”

[3] = tested on: nonmalignant plasma cells from normal donor bone marrow; experiment: My-DST quality control: normal donor bone marrow aspirates, nonmalignant plasma cells; assay type: cell-based, human; conditions: 48 h (FIG. 2B, 7F)
Description: Normal donor samples were purchased from AllCells.
PIs, IMiDs and Dex were purchased from Thermo Fisher. […] Dara was obtained from University of Colorado Health Pharmacy.
Data analysis was completed using FlowJo software.

[4] = patient 614, with progression of disease (FIG. 5D)

Compound: O=P1(N(CCCl)CCCl)NCCCO1 (stereo not shown) [C, cyclophosphamide]
- viability of MM cells compared to untreated controls (FIG. 1G) ([1]; 48 h, representative patient sample): reduced viable MM cells
- EV sensitivity in samples from patients with prior clinical exposure versus naïve ([1]; FIGS. 8C-8F): unchanged
- change of ex vivo drug sensitivity between biopsies at multiple time points ([1]; patient 634, multiple relapse time points (FIG. 5E)): remained IMiD and cyclophosphamide resistant
- change of ex vivo drug sensitivity between biopsies at multiple time points ([1]; patient 646 (FIG. 5F)): surprising re-sensitization
- change of ex vivo drug sensitivity between biopsies at multiple time points ([1]; patient 700 (FIG. 5C)): increased sensitivity
- nonspecific cytotoxicity on the bulk MNC population (FIG. 1G) [2]: sometimes showed nonspecific cytotoxicity
- viability of nonplasma cells (NPCs) in the cultures [2]: occasional exception

Compound: CC(C)C[C@H](NC(=O)[C@H](CCc1ccccc1)NC(=O)CN1CCOCC1)C(=O)N[C@@H](Cc1ccccc1)C(=O)N[C@@H](CC(C)C)C(=O)[C@@]1(C)CO1 [Car, carfilzomib]
- change of ex vivo drug sensitivity between biopsies at multiple time points [1, 4]: significantly increased drug resistance

Compound: Nc1cccc2c1CN(C1CCC(=O)NC1=O)C2=O (stereo not shown) [R, lenalidomide]
- change of ex vivo drug sensitivity between biopsies at multiple time points [1, 4]: significantly increased drug resistance
- change of ex vivo drug sensitivity between biopsies at multiple time points ([1]; patient 700 (FIG. 5C)): significantly increased drug resistance

Compound: CC(C)C[C@H](NC(=O)[C@H](Cc1ccccc1)NC(=O)c1cnccn1)B(O)O [V, bortezomib]
- change of ex vivo drug sensitivity between biopsies at multiple time points ([1]; patient 646 (FIG. 5F)): lost isolated bortezomib sensitivity

Compound: IL-6: interleukin-6, cytokine added to the culture, 2 ng/mL
- MM cell viability loss in culture on IL-6 addition (FIG. 1B) ([1]; ex vivo supplementation of culture): attenuated MM cell viability loss in culture for some patient samples

Compound: daratumumab
- ex vivo response in samples from patients who had recently received Dara ([1]; 20 nM, Dara-exposed patients (FIG. 6C)): ex vivo resistance was evident
- ex vivo activity, newly diagnosed versus relapsed samples ([1]; 20 nM, Dara-naïve patients (FIG. 6C)): very similar activity
- ex vivo sensitivity in naïve patients compared to those with prior exposure ([1]; 20 nM, P=0.003 (FIG. 6D)): significantly lower
- ex vivo activity after addition of clodronate-containing liposomes (macrophage deactivation) ([1]; 3/3 Dara-sensitive samples (FIG. 7D)): partially blocked
- dose response of viable MM cells (FIG. 6A) ([1]; 48 hours ex vivo culture): dose dependent reduction in viable MM cells
- viability of plasma cells from BM aspirates from normal donors [3]: did not substantially reduce viability
- viability of nonplasma cells (NPCs) in the cultures [2]: did not affect the viability
